In PMC8998611, “Identification of Novel GSK-3β Hits Using Competitive Biophysical Assays” (International Journal of Molecular Sciences, 2022):

How the values were obtained:
GSK-3β [1] = target: T1, GSK-3β (Homo sapiens, UniProt P49841); experiment: LANCE Ultra TR-FRET GSK-3β kinase inhibition assay (ULight-GS phosphorylation); assay type: biochemical; conditions: 1 µM ATP, 50 nM ULight-GS; for IC50: dose-response 30 nM to 200 μM
Experimental: To assess if the identified GSK-3β binders were also able to affect kinase activity, the inhibitory activity of the four identified hit compounds was tested at four concentrations (1-5-50-100 μM) using the LANCE® Ultra (Perkin Elmer, Waltham, MA, USA) time-resolved fluorescence resonance energy transfer (TR-FRET) assay. The assay measures the ability of GSK-3β to phosphorylate a specific substrate, human Muscle Glycogen Synthase (ULight-GS ([…]/pSer657)), in the presence and absence of the identified ligands. […] Specifically, IC50 values were (14.81 ± 0.55) μM and (15.25 ± 1.34) μ[…] and G12, respectively (Figure 5). The GSK-3β kinase assay was run in 384 well microplates (OptiPlate^TM-384, White, Perkin Elmer) with a total reaction volume of 20 μL. The inhibitory potency against human recombinant GSK-3β was evaluated using the LANCE® Ultra (Perkin Elmer) time-resolved fluorescence resonance energy transfer (TR-FRET) by measuring the phosphorylation of the specific substrate, human Muscle Glycogen Synthase (ULight-GS ([…]/pSer657)), according to the manufacturer's instructions. […] The reaction was initiated by adding 50 nM of the substrate ULight-[…] and 1 μM ATP. The mixture was incubated for 1 h at 23 °C. Afterward, the reaction was stopped by adding 8 mM EDTA. After 5 min, the anti-phospho-GS antibody labeled with europium chelate was added. 1 h later, the kinase reaction was monitored by irradiation at 320 nm, and the fluorescence was measured at 615 and 665 nm, using EnVision 2014 Multilabel Reader (PerkinElmer). The calculated signal ratio at 665/615 nm was proportional to the extent of ULight-GS phosphorylation. The compounds were screened at four concentrations (1-5-50-100 μM). For selected compounds, dose-response curves, ranging from 30 nM up to 200 μM, were performed. Dose-response curves were run in three independent experiments, each performed in three technical replicates. IC50 values (concentrations causing half-maximal response or enzyme inhibition) were determined by non-linear regression analysis of the Log [concentration]/response curves generated with mean replicate values using a four parameter Hill equation curve fitting with GraphPad Prism 8 (GraphPad Software Inc., San Diego, CA, USA).

GSK-3β [2] = target: T1, GSK-3β; experiment: MicroScale Thermophoresis (MST) binding to fluorescently labeled GSK-3β; set-up: made in house; host or cells: Sf9 cells; conditions: preincubation with 3 mM AMP-PNP; data not shown
Experimental: MicroScale Thermophoresis (MST) experiments were conducted in triplicate on a Monolith NT.115 Pico system (NanoTemper Technologies, Munich, Germany).
The MST technique was used both for hit binding and for affinity (kd) determination.
GSK-3β was labeled with the His-tag RED-tris-NTA label 2nd generation (Nanotemper Technologies) following Nanotemper technology protocol. The 100 nM stock labeled protein solution was used at 20 nM concentration to roughly start from 7000 fluorescence counts in each screening experiment.
GSK-3β was labelled also using RED-NHS ammine dye (Nanotemper Technologies) following the manufacturer’s protocol. The obtained ammine-labeled protein was used at 20 nM concentration to roughly start the experiments from 6000 fluorescence counts.
Binding tests were performed on eight capillaries with a constant concentration of the labeled protein (20 nM), to detect the effect induced by the compounds on the fluorescence signal (in the presence or absence of 3 mM AMP-PNP). Protein in assay buffer in the presence of 5% DMSO was the negative control.
Assay buffer: Phosphate buffer 0.1 M pH 7.2, 5 mM MgCl2, 0.001% Tween80, 0.1% PEG8000. Experiments were performed in triplicates. Data elaboration and plots were performed using MO.Control Nanotemper software.

T1 sequence (P49841 whole entry): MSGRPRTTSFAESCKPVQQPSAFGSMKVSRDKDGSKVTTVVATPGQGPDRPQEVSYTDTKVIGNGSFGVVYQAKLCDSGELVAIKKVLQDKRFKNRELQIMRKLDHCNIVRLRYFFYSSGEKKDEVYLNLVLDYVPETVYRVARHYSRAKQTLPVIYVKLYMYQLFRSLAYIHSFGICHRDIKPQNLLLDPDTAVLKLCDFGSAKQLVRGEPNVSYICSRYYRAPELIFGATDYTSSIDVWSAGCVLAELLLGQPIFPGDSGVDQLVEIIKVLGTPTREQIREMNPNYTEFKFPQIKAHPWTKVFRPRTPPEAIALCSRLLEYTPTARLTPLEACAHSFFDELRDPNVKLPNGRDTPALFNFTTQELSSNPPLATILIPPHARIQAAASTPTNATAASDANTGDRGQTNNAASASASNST

| Structure (SMILES) | IC50 (GSK-3β [1]) [µM] | MST binding check, displacement assay (GSK-3β [2]) | inhibition at 1 µM (GSK-3β [1]; 1 μM compound, mean ± SD) [%] | inhibition at 5 µM (GSK-3β [1]; 5 μM compound, mean ± SD) [%] | inhibition at 50 µM (GSK-3β [1]; 50 μM compound, mean ± SD) [%] | inhibition at 100 µM (GSK-3β [1]; 100 μM compound, mean ± SD) [%] |
| --- | --- | --- | --- | --- | --- | --- |
| O=C(Nc1ccccn1)C1CCN(C(=O)COc2ccccc2F)C1 (stereo not shown) [ARN1484] | 38.1 |  |  |  |  |  |
| CN(C)S(=O)(=O)N1CC(c2nc(N)ncc2-c2ccc(F)cc2)C1 [ARN9133] | 27.2 |  |  |  |  |  |
| O=C(NCCn1ncc(-c2ccncc2)c1C1CC1)c1ccccc1F [B3] |  | maintained their ability to bind GSK-3β | 2.5 ± 0.9 | 4.9 ± 1.5 | 27.1 ± 4.9 | 46.6 ± 6 |
